# From US20130303532A1, “IMIDAZOPYRAZINES FOR USE AS MPS-1 AND TKK INHIBITORS IN THE TREATMENT HYPERPROLIFERATIVE DISORDERS” (BAYER INTELLECTUAL PROPERTY GmbH, priority 2010, published 2013)
# Where two headings read alike, the source gives them in different places.
# Target: T1, human kinase Mps-1 (Homo sapiens, UniProt P33981)
# T1 construct: N-terminally GST-tagged human full length recombinant Mps-1 kinase; GST (N); purchased Invitrogen, Karslruhe, Germany PV4071
# T1 sequence (P33981 1-857): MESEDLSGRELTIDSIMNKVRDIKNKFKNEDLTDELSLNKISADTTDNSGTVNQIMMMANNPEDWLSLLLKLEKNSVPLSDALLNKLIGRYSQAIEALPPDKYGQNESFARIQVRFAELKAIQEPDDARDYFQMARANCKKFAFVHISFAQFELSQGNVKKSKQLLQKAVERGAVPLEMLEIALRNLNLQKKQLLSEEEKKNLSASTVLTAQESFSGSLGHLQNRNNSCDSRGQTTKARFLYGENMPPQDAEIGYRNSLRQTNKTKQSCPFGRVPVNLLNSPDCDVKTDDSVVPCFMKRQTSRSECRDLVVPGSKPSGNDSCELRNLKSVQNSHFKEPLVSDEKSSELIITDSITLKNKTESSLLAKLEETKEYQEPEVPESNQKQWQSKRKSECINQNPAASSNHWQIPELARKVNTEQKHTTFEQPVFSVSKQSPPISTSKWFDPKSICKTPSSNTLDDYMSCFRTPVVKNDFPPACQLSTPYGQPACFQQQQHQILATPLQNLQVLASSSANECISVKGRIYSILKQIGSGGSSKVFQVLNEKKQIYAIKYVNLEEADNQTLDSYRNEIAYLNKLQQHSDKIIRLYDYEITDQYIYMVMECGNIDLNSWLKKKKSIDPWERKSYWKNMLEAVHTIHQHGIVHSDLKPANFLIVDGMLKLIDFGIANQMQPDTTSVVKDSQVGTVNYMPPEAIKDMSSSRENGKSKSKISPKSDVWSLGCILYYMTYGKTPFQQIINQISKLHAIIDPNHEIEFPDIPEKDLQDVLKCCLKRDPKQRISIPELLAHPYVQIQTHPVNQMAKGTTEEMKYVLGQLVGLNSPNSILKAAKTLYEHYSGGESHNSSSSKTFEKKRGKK
# Assay: Mps-1 kinase assay (TR-FRET)
# Assay type: biochemical
# Conditions: N-terminally GST-tagged human full length recombinant Mps-1, 10 μM ATP, 1 μM biotinylated peptide substrate, 60 min at 22° C.
IC50 (read-out: Mps1 IC50),Structure (SMILES),IC50 (Mps1 IC50 [nM])
,"Cc1cc(-c2cnc3c(NCCCO)nccn23)ccc1C(=O)NC1CC1 [Example 7-104, N-cyclopropyl-4-{8-[(3-hydroxypropyl)amino]imi-dazo[1,2-a]pyrazin-3-yl}-2-methylbenzamide]",124 nM
18.5 nM,"CCCCNc1nccn2c(-c3ccc(C(=O)NC4CC4)c(C)c3)cnc12 [Example 7-105, 4-[8-(butylamino)imidazo[1,2-a]pyrazin-3-yl]-N-cyclopropyl-2-methylbenzamide]",
,CC(=O)NCCNc1nccn2c(-c3ccc(C(=O)NC4CC4)c(C)c3)cnc12 [Example 7-106],1470 nM
18.8 nM,"Cc1cc(-c2cnc3c(NCC4CC4)nccn23)ccc1C(=O)NC1CC1 [Example 7-107, N-cyclopropyl-4-{8-[(cyclopropylmethyl)ami-no]imidazo[1,2-a]pyrazin-3-yl}-2-methylbenzamide]",
,"Cc1cc(-c2cnc3c(NCc4cccnc4)nccn23)ccc1C(=O)NC1CC1 [Example 7-108, N-cyclopropyl-2-methyl-4-{8-[(pyridin-3-ylmethyl)amino]imi-dazo[1,2-a]pyrazin-3-yl}benzamide]",123 nM
,"Cc1cc(-c2cnc3c(NCc4ccncc4)nccn23)ccc1C(=O)NC1CC1 [Example 7-109, N-cyclopropyl-2-methyl-4-{8-[(pyridin-4-ylmethyl)amino]imi-dazo[1,2-a]pyrazin-3-yl}benzamide]",166 nM
,"Cc1cc(-c2cnc3c(NCc4ccco4)nccn23)ccc1C(=O)NC1CC1 [Example 7-110, N-cyclopropyl-4-{8-[(furan-2-ylmethyl)amino]imi-dazo[1,2-a]pyrazin-3-yl}-2-methylbenzamide]",28.1 nM
,"Cc1cc(-c2cnc3c(NCCC#N)nccn23)ccc1C(=O)NC1CC1 [Example 7-111, 4-{8-[(2-cyanoethyl)amino]imi-dazo[1,2-a]pyrazin-3-yl}-N-cyclopropyl-2-methylbenzamide]",49.7 nM
81.6 nM,"Cc1cc(-c2cnc3c(NCC(F)(F)C(F)(F)F)nccn23)ccc1C(=O)NC1CC1 [Example 7-112, N-cyclopropyl-2-methyl-4-{8-[(2,2,3,3,3-pentafluoropropyl)ami-no]imidazo[1,2-a]pyrazin-3-yl}benzamide]",
,"Cc1cc(-c2cnc3c(NCC(O)C(F)(F)F)nccn23)ccc1C(=O)NC1CC1 (centres unmarked) [Example 7-113, N-cyclopropyl-2-methyl-4-{8-[(3,3,3-trifluoro-2-hydroxypropyl)amino]imi-dazo[1,2-a]pyrazin-3-yl}benzamide]",36.7 nM
,"Cc1cc(-c2cnc3c(NCC(C)O)nccn23)ccc1C(=O)NC1CC1 (centres unmarked) [Example 7-115, N-cyclopropyl-4-{8-[(2-hydroxypropyl)amino]imi-dazo[1,2-a]pyrazin-3-yl}-2-methylbenzamide]",101 nM
,"COCCCNc1nccn2c(-c3ccc(C(=O)NC4CC4)c(C)c3)cnc12 [Example 7-116, N-cyclopropyl-4-{8-[(3-methoxypropyl)amino]imi-dazo[1,2-a]pyrazin-3-yl}-2-methylbenzamide]",141 nM
196 nM,"Cc1cc(-c2cnc3c(NCCCNC(=O)OC(C)(C)C)nccn23)ccc1C(=O)NC1CC1 [Example 7-117, tert-butyl [3-({3-[4-(cyclopropylcarbamoyl)-3-methylphenyl]imidazo[1,2-a]pyrazin-8-yl}amino)propyl]carbamate]",
,"Cc1cc(-c2cnc3c(NCC(F)F)nccn23)ccc1C(=O)NC1CC1 [Example 7-118, N-cyclopropyl-4-{8-[(2,2-difluoroethyl)amino]imi-dazo[1,2-a]pyrazin-3-yl}-2-methylbenzamide]",70.3 nM
,"Cc1cc(-c2cnc3c(NCc4ccn(C)n4)nccn23)ccc1C(=O)NC1CC1 [Example 7-119, N-cyclopropyl-2-methyl-4-(8-{[(1-methyl-1H-pyrazol-3-yl)methyl]amino}imi-dazo[1,2-a]pyrazin-3-yl)benzamide]",298 nM
,"Cc1cc(-c2cnc3c(NCc4cnn(C)c4)nccn23)ccc1C(=O)NC1CC1 [Example 7-120, N-cyclopropyl-2-methyl-4-(8-{[(1-methyl-1H-pyrazol-4-yl)methyl]amino}imi-dazo[1,2-a]pyrazin-3-yl)benzamide]",93.4 nM
,"CCOC(C)CNc1nccn2c(-c3ccc(C(=O)NC4CC4)c(C)c3)cnc12 (centres unmarked) [Example 7-121, N-cyclopropyl-4-{8-[(2-ethoxypropyl)amino]imi-dazo[1,2-a]pyrazin-3-yl}-2-methylbenzamide]",154 nM
,"Cc1cc(-c2cnc3c(NCC(C)(C)O)nccn23)ccc1C(=O)NC1CC1 [Example 7-122, N-cyclopropyl-4-{8-[(2-hydroxy-2-methylpropyl)amino]imi-dazo[1,2-a]pyrazin-3-yl}-2-methylbenzamide]",171 nM
,"Cc1cc(-c2cnc3c(NCc4ccc(Cl)s4)nccn23)ccc1C(=O)NC1CC1 [Example 7-123, 4-(8-{[(5-chlorothiophen-2-yl)methyl]amino}imi-dazo[1,2-a]pyrazin-3-yl)-N-cyclopropyl-2-methylbenzamide]",22.5 nM
,"Cc1cc(-c2cnc3c(NCC4CCCCO4)nccn23)ccc1C(=O)NC1CC1 (centres unmarked) [Example 7-124, N-cyclopropyl-2-methyl-4-{8-[(tetrahydro-2H-pyran-2-ylmethyl)amino]imi-dazo[1,2-a]pyrazin-3-yl}benzamide]",80.8 nM
,"Cc1cc(-c2cnc3c(NC[C@@H](O)CO)nccn23)ccc1C(=O)NC1CC1 [Example 7-125, N-cyclopropyl-4-{8-[(2,3-dihydroxypropyl)amino]imi-dazo[1,2-a]pyrazin-3-yl}-2-methylbenzamide]",361 nM
,"Cc1cc(-c2cnc3c(NCc4c(F)cccc4F)nccn23)ccc1C(=O)NC1CC1 [Example 7-127, N-cyclopropyl-4-{8-[(2,6-difluorobenzyl)amino]imi-dazo[1,2-a]pyrazin-3-yl}-2-methylbenzamide]",47.1 nM
,"COc1cc(C(=O)NC2CC2)ccc1-c1cnc2c(NCC(C)C)nccn12 [Example 7-128, N-cyclopropyl-3-methoxy-4-{8-[(2-methylpropyl)amino]imi-dazo[1,2-a]pyrazin-3-yl}benzamide]",19.3 nM
